Results published in US8779142B2, “Azabicyclo compound and salt thereof” (Taiho Pharmaceutical Co., Ltd., priority 2009, dated 2014).

Experiments:
[1] = target: human HSP90 alpha protein (HSP90 N-terminal protein, amino acids 2-236) (Homo sapiens (Human), UniProt P07900); assay: Measurement of HSP90-binding activity (AlphaScreen competitive assay, biotin-labeled geldanamycin); conditions: concentration inhibiting binding of biotin-labeled geldanamycin (40 nM) to purified HSP90 to 50% of control; read-out: HSP-binding activity IC50
SK-BR-3 cells = assay: Measurement of cell growth inhibition (crystal violet staining method); format: cell-based; conditions: Homo sapiens
[2] = breast cancer SK-BR-3 cells, 72 hr culture with test substance

Compound	IC50 [1]	IC50 (SK-BR-3 cells; [2])	IC50 (SK-BR-3 cells; SK-BR-3, 72 h)
Cc1cn(-c2ccc(C(N)=O)c(NC3CCOCC3)c2)c2nccc(-c3cnc4ccccc4c3)c12 [Example 53, 2-(Tetrahydro-2H-pyran-4-ylamino)-4-{3-methyl-4-(quinolin-3-yl)-1H-pyrrolo[2,3-b]pyridin-1-yl}benzamide]	350 nM	200 nM	
CC(C)c1cc(C(N)=O)ccc1-n1nc(C(C)C)c2c(-n3cnc(-c4cnn(C)c4)c3)ccnc21 [Example 104, 3-Isopropyl-4-{3-isopropyl-4-(4-(1-methyl-1H-pyrazol-4-yl)-1H-imidazol-1-yl)-1H-pyrazolo[3,4-b]pyridin-1-yl}benzamide]	120 nM	200 nM	
CC(C)c1nn(-c2ccc(C(N)=O)c(NC(C)(C)C)c2)c2nccc(-n3cnc(-c4cccnc4)c3)c12 [Example 141, 2-(Tert-butylamino)-4-{3-isopropyl-4-(4-(pyridin-3-yl)-1H-imidazol-1-yl)-1H-pyrazolo[3,4-b]pyridin-1-yl}benzamide]	410 nM	140 nM	
CC(C)c1nn(-c2ccc(C(N)=O)cc2C2CC2)c2nccc(-n3cnc(-c4cnn(C)c4)c3)c12 [Example 105, 3-Cyclopropyl-4-{3-isopropyl-4-(4-(1-methyl-1H-pyrazol-4-yl)-1H-imidazol-1-yl)-1H-pyrazolo[3,4-b]pyridin-1-yl}benzamide]	140 nM	250 nM	
CCCc1cn(-c2ccc(C(N)=O)c(N[C@H]3CC[C@H](O)CC3)c2)c2nccc(-c3cnc4ccccc4c3)c12 [Example 45, 2-(Trans-4-hydroxycyclohexylamino)-4-{3-propyl-4-(quinolin-3-yl)-1H-pyrrolo[2,3-b]pyridin-1-yl}benzamide]	90 nM	10 nM	
CC(C)Nc1cc(-n2nc(C(F)(F)F)c3c(-n4cnc(-c5cccnc5)c4)ccnc32)ccc1C(N)=O [Example 179, 2-(Isopropylamino)-4-{4-(4-(pyridin-3-yl)-1H-imidazol-1-yl)-3-(trifluoromethyl)-1H-pyrazolo[3,4-b]pyridin-1-yl}benzamide]	380 nM	70 nM	
CCc1cn(-c2ccc(C(N)=O)c(N[C@H]3CC[C@H](OC(=O)CN)CC3)c2)c2nccc(-c3cnc4ccccc4c3)c12 [Example 42, Trans-4-{2-carbamoyl-5-{3-ethyl-4-(quinolin-3-yl)-1H-pyrrolo[2,3-b]pyridin-1-yl}phenylamino}cyclohexyl-2-aminoacetate dimethanesulfonate]	190 nM		30 nM
CCc1c(-n2nc(C(C)C)c3c(-n4cnc(-c5cnn(C)c5)c4)ccnc32)ccc(C(N)=O)c1N [Example 134, 2-Amino-3-ethyl-4-{3-isopropyl-4-(4-(1-methyl-1H-pyrazol-4-yl)-1H-imidazol-1-yl)-1H-pyrazolo[3,4-b]pyridin-1-yl}benzamide]	200 nM	110 nM	
CCCNc1cc(C(N)=O)ccc1-n1nc(C(F)(F)F)c2c(-n3cnc(-c4cnn(C)c4)c3)ccnc21 [Example 163, 4-{4-(4-(1-Methyl-1H-pyrazol-4-yl)-1H-imidazol-1-yl)-3-(trifluoromethyl)-1H-pyrazolo[3,4-b]pyridin-1-yl}-3-(propylamino)benzamide]	100 nM	60 nM	
CC(C)c1nn(-c2ccc(C(N)=O)c(Nc3ccc(N4CCOCC4)cc3)c2)c2nccc(-c3cnc4ccccc4c3)c12 [Example 33, 4-{3-Isopropyl-4-(quinolin-3-yl)-1H-pyrazolo[3,4-b]pyridin-1-yl}-2-(4-morpholinophenylamino)benzamide]	1140 nM	70 nM	
CCc1cn(-c2ccc(C(N)=O)c(N[C@H]3CC[C@H](O)CC3)c2)c2nccc(-c3cnc4ccccc4c3)c12 [Example 41, 4-{3-Ethyl-4-(quinolin-3-yl)-1H-pyrrolo[2,3-b]pyridin-1-yl}-2-(trans-4-hydroxycyclohexylamino)benzamide]	120 nM	30 nM	
CCNc1cc(C(N)=O)ccc1-n1nc(C(F)(F)F)c2c(-n3cnc(-c4cccnc4)c3)ccnc21 [Example 180, 3-(Ethylamino)-4-{4-(4-(pyridin-3-yl)-1H-imidazol-1-yl)-3-(trifluoromethyl)-1H-pyrazolo[3,4-b]pyridin-1-yl}benzamide]	190 nM	140 nM	
CCc1cn(-c2ccc(C(N)=O)c(NC3CCN(C)CC3)c2)c2nccc(-c3cnc4ccccc4c3)c12 [Example 71, 4-{3-Ethyl-4-(quinolin-3-yl)-1H-pyrrolo[2,3-b]pyridin-1-yl}-2-(1-methylpiperidin-4-ylamino)benzamide]	250 nM	100 nM	
CC(=O)N[C@H]1CC[C@H](Nc2cc(-n3cc(C)c4c(-c5cnc6ccccc6c5)ccnc43)ccc2C(N)=O)CC1 [Example 62, 2-(Trans-4-acetamidocyclohexylamino)-4-{3-methyl-4-(quinolin-3-yl)-1H-pyrrolo[2,3-b]pyridin-1-yl}benzamide]	610 nM	210 nM	
Cc1cn(-c2ccc(C(N)=O)c(NCC(C)(C)O)c2)c2nccc(-c3cnc4ccccc4c3)c12 [Example 58, 2-(2-Hydroxy-2-methylpropylamino)-4-{3-methyl-4-(quinolin-3-yl)-1H-pyrrolo[2,3-b]pyridin-1-yl}benzamide]	460 nM	210 nM	
Cc1cn(-c2ccc(C(N)=O)c(NCCCNC(C)C)c2)c2nccc(-c3cnc4ccccc4c3)c12 [Example 60, 2-[3-(Isopropylamino)propylamino]-4-{3-methyl-4-(quinolin-3-yl)-1H-pyrrolo[2,3-b]pyridin-1-yl}benzamide]	1370 nM	1530 nM	
CC(C)c1nn(-c2ccc(C(N)=O)c(NCCc3ccccn3)c2)c2nccc(-c3cnc4ccccc4c3)c12 [Example 28, 4-{3-Isopropyl-4-(quinolin-3-yl)-1H-pyrazolo[3,4-b]pyridin-1-yl}-2-{2-(pyridin-2-yl)ethylamino}benzamide]	400 nM	280 nM	
CC(C)c1nn(-c2ccc(C(N)=O)cc2C#N)c2nccc(-n3cnc(-c4cnn(C)c4)c3)c12 [Example 124, 3-Cyano-4-{3-isopropyl-4-(4-(1-methyl-1H-pyrazol-4-yl)-1H-imidazol-1-yl)-1H-pyrazolo[3,4-b]pyridin-1-yl}benzamide]	350 nM	590 nM	
Cc1cc(C(N)=O)ccc1-n1nc(C(F)(F)F)c2c(-n3cnc(-c4cnn(C)c4)c3)ccnc21 [Example 154, 3-Methyl-4-{4-(4-(1-methyl-1H-pyrazol-4-yl)-1H-imidazol-1-yl)-3-(trifluoromethyl)-1H-pyrazolo[3,4-b]pyridin-1-yl}benzamide]	140 nM	120 nM	
CC(C)c1nn(-c2ccc(C(N)=O)c(NCCN3CCCC3)c2)c2nccc(-n3cnc(-c4cnn(C)c4)c3)c12 [Example 115, 4-{3-Isopropyl-4-(4-(1-methyl-1H-pyrazol-4-yl)-1H-imidazol-1-yl)-1H-pyrazolo[3,4-b]pyridin-1-yl}-2-{2-(pyrrolidin-1-yl)ethylamino}benzamide]	160 nM	240 nM	
CCc1nn(-c2ccc(C(N)=O)c(N[C@H]3CC[C@H](O)CC3)c2)c2nccc(-c3cnc4ccccc4c3)c12 [Example 3, 2-(Trans-4-hydroxycyclohexylamino)-4-{4-(quinolin-3-yl)-3-ethyl-1H-pyrazolo[3,4-b]pyridin-1-yl}benzamide]	170 nM	20 nM	
